Reference: PubChem BioAssay (NCI)
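Briefly, cells in 96-well plates were exposed to five compound concentrations for 48 h, and endpoints were estimated by linear interpolation. At the TGI there is no net growth.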

Key:
Experiment in all cases: DTP human tumour cell line panel, 48 h
ACHN renal = test system: ACHN renal
EKVX NSCLC = test system: EKVX NSCLC
MDA-MB-435 = test system: MDA-MB-435
NCI-H522 lung = test system: NCI-H522 lung
NCI/ADR-RES ovarian = test system: NCI/ADR-RES ovarian
OVCAR-4 ovarian = test system: OVCAR-4 ovarian
OVCAR-5 ovarian = test system: OVCAR-5 ovarian
TK-10 renal = test system: TK-10 renal
UO-31 renal = test system: UO-31 renal
SK-OV-3 ovarian = test system: SK-OV-3 ovarian

SMILES	TGI (ACHN renal) [µM]	TGI (EKVX NSCLC) [µM]	TGI (MDA-MB-435) [µM]	TGI (NCI-H522 lung) [µM]	TGI (NCI/ADR-RES ovarian) [µM]	TGI (OVCAR-4 ovarian) [µM]	TGI (OVCAR-5 ovarian) [µM]	TGI (TK-10 renal) [µM]	TGI (UO-31 renal) [µM]	TGI (SK-OV-3 ovarian) [µM]
Cc1ccccc1NC(=O)Cc1csc(N=Nc2c(O)[nH]c3ccccc23)n1	> 100	> 100	> 1	41.2	> 100	62.7	> 100	> 100	> 100	
Cc1ccc2c(c1C)C(=O)/C(=C/c1cccc(C)c1C(=O)O)C2	> 100	> 100	> 100	> 100	> 100	> 100	> 100	> 100	> 43	> 100
CCNC(=S)N/N=C(\C)c1cccc(C)n1	> 100	> 100	> 100	26	> 100		> 100	> 100	> 100	> 100
O=C1CC(c2ccccc2)S(=O)c2ccccc2N1 (configuration not stated)	> 100	> 100	> 100	> 100	> 100	> 100	> 100	> 100	> 100	> 100
CC(C)(C)C1=C(Br)C(OC(=O)C(F)(F)F)(C(C)(C)C)OP1(=O)c1ccccc1 (configuration not stated)	> 100	69	> 100	> 100	> 100	> 100	> 100	> 100	> 100	> 100
CN(C)CCCNC(=O)c1cn2c(ccc3sc4ccccc4c(=O)c32)n1	25.8	31.6	30.4	32.4	8.37	28.1	22.8	30.9	24.3	30.7
COc1ccc(CNc2nc3ccccc3nc2C(=O)O)cc1		> 100	> 100	> 100	> 100		> 100	> 100	> 100	
COc1cc(C(C#N)NNc2nc(C)cc(=O)[nH]2)cc(OC)c1OC (configuration not stated)	> 100			> 100		> 100	> 100	> 100	> 100	> 100
CC(=O)Nc1ccc(-c2nnc(SCC(=O)Nc3ccc(Cl)cc3)o2)cc1	28.5	38.4		5.98		55.9	31.6	32.4	33.6	47.1
O=C(O)c1ccc(N/C(=C(/C(Cl)=C(Cl)Cl)[N+](=O)[O-])n2nnc3ccccc32)cc1	> 100	> 100	> 100		> 100	> 100	> 100		> 100	> 100
Cc1ccc(S(=O)(=O)Nn2c(O)c(C#N)c(-c3ccc([N+](=O)[O-])cc3)c(C#N)c2=O)cc1	> 100	> 100	> 100	> 100	> 100	> 100	> 100	> 100		> 100
Cc1c(O)c(=O)ccn1CCc1ccc(O)cc1	> 100	93.3	> 100		59.5	76.2	> 100	> 100		> 100
O=[N+]([O-])C(C=C(n1nnc2ccccc21)n1nnc2ccccc21)=C(n1nnc2ccccc21)n1nnc2ccccc21	> 100	> 100	> 100		> 100		> 100	> 100	> 100	> 100
Cc1ccc(S(=NS(=O)(=O)c2ccc(C)cc2)c2ccc(C)cc2)cc1	> 100	> 100	> 100		> 100		> 100	> 100	> 100	
NN/C(=N\S(=O)(=O)c1ccc(S(=O)(=O)c2ccccc2)s1)Nc1ccc(Cl)cc1	> 100	50.4			> 100	> 100	> 100	> 100	> 100	> 100
O=C(Nc1ccc(Cl)cc1)c1cc(S(=O)(=O)Nc2n[nH]c(=O)n2-c2ccccc2)c(S)cc1Cl		> 100	> 100		> 100	> 100	> 100		> 100	> 100
O=[N+]([O-])/C(C(Cl)=C(Cl)Cl)=C(/Nc1ccccc1)Sc1ccccc1	33.1	38	33.9	33.6	78.9	37.3		59.8	27.5	42.9
CC(=O)OCC1OC(n2c(-c3ccccc3)c(N=Nc3ccc(C)cc3)c(C)c(C#N)c2=S)C(OC(C)=O)C(OC(C)=O)C1OC(C)=O (configuration not stated)	> 100		36.6		39.9	25.1	51.6	47.6		
CCCCC[C@H]1CCCCCCCCCC(=O)OC2C(O[C@@H]3OC(C)[C@H](OC(=O)[C@@H](C)CC)C(O[C@@H]4OC(C)[C@H](O)C(O)[C@@H]4O)[C@@H]3OC(=O)[C@H](C)CC)[C@H](OC3C(O)[C@@H](O)C(C)O[C@H]3O1)OC(CO)[C@H]2O (some centres not stated)		36.7		34.2	36.9	36.3	30.6	34.3	30.8	29.3
S=c1nc[nH]c2c1ncn2C1CCCO1 (configuration not stated)	> 100			> 100		> 100	> 100	> 100	> 100	> 100
COc1ccc2c([nH]c3c(O)c(-c4c(C)cc5c([nH]c6c(CC=C(C)C)c(OC)ccc65)c4O)c(C)cc32)c1CC=C(C)C	> 100			> 100		> 100	> 100	> 100	> 100	> 100
O=c1cc(N2CCCC2)[nH]c(=O)n1-c1ccc(Cl)cc1	> 100	> 100	> 100	> 100	> 100	> 100	> 100	> 100		> 100
O=c1c2ccccc2nc(-c2ccccc2)n1NC(=S)Nc1cccc(Cl)c1	> 100			> 100		> 100	> 100	> 100	> 100	> 100
COCCN1C(=O)C2c3[nH]c4ccccc4c3C3CCC(C(C)(C)C)CC3C2C1=O (configuration not stated)	> 10	38.2	36.9	35.7	42.6	36.8		> 10	27.2	42.7
